From ChEMBL document CHEMBL6182944, “Substrate Specificity of the Organic Cation Transporters MATE1 and MATE2K and Functional Overlap with OCT1 and OCT2” (J Med Chem, 2025)

What was measured:
[1] = target: T1, MATE2-K (Homo sapiens, UniProt Q86VL8); assay: in vitro
T1 sequence (Q86VL8 whole entry): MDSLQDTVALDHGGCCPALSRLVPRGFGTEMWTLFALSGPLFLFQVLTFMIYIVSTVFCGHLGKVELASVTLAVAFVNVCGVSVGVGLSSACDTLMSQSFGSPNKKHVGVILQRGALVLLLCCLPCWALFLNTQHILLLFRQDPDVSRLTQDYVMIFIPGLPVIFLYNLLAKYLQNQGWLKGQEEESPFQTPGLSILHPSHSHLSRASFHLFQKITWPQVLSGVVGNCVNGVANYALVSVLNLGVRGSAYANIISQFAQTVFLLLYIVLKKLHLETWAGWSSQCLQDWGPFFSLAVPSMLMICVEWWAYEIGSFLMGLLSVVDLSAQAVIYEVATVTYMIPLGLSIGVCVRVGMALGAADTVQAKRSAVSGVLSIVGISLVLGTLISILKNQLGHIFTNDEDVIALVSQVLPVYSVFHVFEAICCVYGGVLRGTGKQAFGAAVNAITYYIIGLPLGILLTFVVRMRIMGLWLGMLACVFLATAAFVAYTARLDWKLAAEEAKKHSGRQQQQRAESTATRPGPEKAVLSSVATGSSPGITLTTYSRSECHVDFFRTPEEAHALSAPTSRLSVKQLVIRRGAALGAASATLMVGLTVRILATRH

[2] = target: T2, MATE1 (Homo sapiens, UniProt Q96FL8); assay: in vitro
T2 sequence (Q96FL8 whole entry): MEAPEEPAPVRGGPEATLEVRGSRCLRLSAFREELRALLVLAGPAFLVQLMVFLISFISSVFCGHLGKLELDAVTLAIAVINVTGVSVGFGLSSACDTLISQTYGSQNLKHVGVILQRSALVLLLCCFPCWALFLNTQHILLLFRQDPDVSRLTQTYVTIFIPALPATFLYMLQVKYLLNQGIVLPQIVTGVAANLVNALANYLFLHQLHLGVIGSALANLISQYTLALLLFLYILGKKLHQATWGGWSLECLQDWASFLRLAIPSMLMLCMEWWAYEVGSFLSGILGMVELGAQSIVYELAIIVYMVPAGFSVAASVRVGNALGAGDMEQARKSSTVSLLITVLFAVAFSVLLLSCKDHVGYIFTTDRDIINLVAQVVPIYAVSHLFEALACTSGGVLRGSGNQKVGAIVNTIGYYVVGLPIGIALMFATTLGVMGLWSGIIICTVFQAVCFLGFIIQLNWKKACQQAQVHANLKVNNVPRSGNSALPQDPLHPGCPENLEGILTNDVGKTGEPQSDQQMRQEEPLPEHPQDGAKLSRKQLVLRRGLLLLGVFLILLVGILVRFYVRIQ

[3] = HEK293 cells expressing MATE2-K

Work on CC[N+](C)(C)c1cccc(O)c1 [EDROPHONIUM] yielded an uptake ratio at 1 min, 2.5 µM [1, 3] greater than 2 and an uptake ratio at 1 min, 2.5 µM ([2]; HEK293 cells expressing MATE1) greater than 2.
For COC(=O)CCc1ccc(OCC(O)CNC(C)C)cc1 (configuration not stated) [ESMOLOL], the uptake ratio at 1 min, 2.5 µM [1, 3] was less than 2 and the uptake ratio at 1 min, 2.5 µM ([2]; HEK293 cells expressing MATE1) was less than 2.
CCNCC(O)c1cccc(O)c1 (configuration not stated) [ETILEFRINE] showed an uptake ratio at 1 min, 2.5 µM [1, 3] greater than 2 and an uptake ratio at 1 min, 2.5 µM ([2]; HEK293 cells expressing MATE1) greater than 2.
In the case of O=S(=O)(c1cccc2cnccc12)N1CCCNCC1 [FASUDIL], the uptake ratio at 1 min, 2.5 µM [1, 3] is reported as greater than 2 and the uptake ratio at 1 min, 2.5 µM ([2]; HEK293 cells expressing MATE1) is reported as less than 2.
CC(C)(C(=O)O)c1ccc(C(O)CCCN2CCC(C(O)(c3ccccc3)c3ccccc3)CC2)cc1 (configuration not stated) [FEXOFENADINE] gave an uptake ratio at 1 min, 2.5 µM [1, 3] of less than 2 and an uptake ratio at 1 min, 2.5 µM ([2]; HEK293 cells expressing MATE1) of less than 2.
OCCN1CCN(CCCN2c3ccccc3Sc3ccc(C(F)(F)F)cc32)CC1 [FLUPHENAZINE] showed an uptake ratio at 1 min, 2.5 µM [1, 3] of less than 2 and an uptake ratio at 1 min, 2.5 µM ([2]; HEK293 cells expressing MATE1) of less than 2.
Work on NCCCC(=O)O [GAMMA-AMINOBUTYRIC ACID] yielded an uptake ratio at 1 min, 2.5 µM [1, 3] of less than 2 and an uptake ratio at 1 min, 2.5 µM ([2]; HEK293 cells expressing MATE1) of less than 2.
Work on Nc1ccn([C@@H]2O[C@H](CO)[C@@H](O)C2(F)F)c(=O)n1 [GEMCITABINE] yielded an uptake ratio at 1 min, 2.5 µM [1, 3] of less than 2 and an uptake ratio at 1 min, 2.5 µM ([2]; HEK293 cells expressing MATE1) of less than 2.
Oc1ccc(CC2NCCc3cc(O)c(O)cc32)cc1 (configuration not stated) [HIGENAMINE] was tested, and the uptake ratio at 1 min, 2.5 µM [1, 3] was greater than 2 and the uptake ratio at 1 min, 2.5 µM ([2]; HEK293 cells expressing MATE1) was greater than 2.
NCCc1c[nH]cn1 [HISTAMINE] showed an uptake ratio at 1 min, 2.5 µM ([1]; hek293) of less than 2 and an uptake ratio at 1 min, 2.5 µM ([2]; hek293) greater than 2.
CCCCCCCN(CC)CCCC(O)c1ccc(NS(C)(=O)=O)cc1 (configuration not stated) [IBUTILIDE] showed an uptake ratio at 1 min, 2.5 µM [1, 3] of less than 2 and an uptake ratio at 1 min, 2.5 µM ([2]; HEK293 cells expressing MATE1) of less than 2.
With N=C(N)NCc1cccc(I)c1 [IOBENGUANE] the uptake ratio at 1 min, 2.5 µM [1, 3] was greater than 2 and the uptake ratio at 1 min, 2.5 µM ([2]; HEK293 cells expressing MATE1) was greater than 2.
For CCC(NC(C)C)C(O)c1ccc(O)c(O)c1 (configuration not stated) [ISOETHARINE], the uptake ratio at 1 min, 2.5 µM [1, 3] was greater than 2 and the uptake ratio at 1 min, 2.5 µM ([2]; HEK293 cells expressing MATE1) was greater than 2.
In the case of CC(C)NCC(O)c1ccc(O)c(O)c1 (configuration not stated) [ISOPROTERENOL], the uptake ratio at 1 min, 2.5 µM [1, 3] is reported as greater than 2 and the uptake ratio at 1 min, 2.5 µM ([2]; HEK293 cells expressing MATE1) is reported as greater than 2.
O=C(C[S+]([O-])Cc1ccco1)NC/C=C\COc1cc(CN2CCCCC2)ccn1 (configuration not stated) [LAFUTIDINE] was tested, and the uptake ratio at 1 min, 2.5 µM [1, 3] was less than 2 and the uptake ratio at 1 min, 2.5 µM ([2]; HEK293 cells expressing MATE1) was less than 2.
With C[N+](C)(C)C[C@H](O)CC(=O)[O-] [LEVOCARNITINE] the uptake ratio at 1 min, 2.5 µM [1, 3] was less than 2 and the uptake ratio at 1 min, 2.5 µM ([2]; HEK293 cells expressing MATE1) was less than 2.
Compound C[N+]1(C)CCCC(OC(=O)C(O)(c2ccccc2)c2ccccc2)C1 (configuration not stated) [MEPENZOLATE BROMIDE] has an uptake ratio at 1 min, 2.5 µM [1, 3] greater than 2 and an uptake ratio at 1 min, 2.5 µM ([2]; HEK293 cells expressing MATE1) greater than 2.
CC(C)NCC(O)c1cc(O)cc(O)c1 (configuration not stated) [METAPROTERENOL] was tested, and the uptake ratio at 1 min, 2.5 µM [1, 3] was greater than 2 and the uptake ratio at 1 min, 2.5 µM ([2]; HEK293 cells expressing MATE1) was greater than 2.
With Clc1ccc(COC(Cn2ccnc2)c2ccc(Cl)cc2Cl)c(Cl)c1 (configuration not stated) [MICONAZOLE] the uptake ratio at 1 min, 2.5 µM [1, 3] was less than 2 and the uptake ratio at 1 min, 2.5 µM ([2]; HEK293 cells expressing MATE1) was less than 2.
For CNC(C)Cc1ccc2c(c1)OCO2 (configuration not stated) [MIDOMAFETAMINE], the uptake ratio at 1 min, 2.5 µM [1, 3] was less than 2 and the uptake ratio at 1 min, 2.5 µM ([2]; HEK293 cells expressing MATE1) was less than 2.
Nc1nc(CC(=O)Nc2ccc(CCNC[C@H](O)c3ccccc3)cc2)cs1 [MIRABEGRON] was tested, and the uptake ratio at 1 min, 2.5 µM [1, 3] was greater than 2 and the uptake ratio at 1 min, 2.5 µM ([2]; HEK293 cells expressing MATE1) was greater than 2.
Work on Cc1ncc(C[n+]2csc(CCOP(=O)(O)O)c2C)c(N)n1 [MONOPHOSPHOTHIAMINE] yielded an uptake ratio at 1 min, 2.5 µM [1, 3] of less than 2 and an uptake ratio at 1 min, 2.5 µM ([2]; HEK293 cells expressing MATE1) of less than 2.
CC(C)(C)NCC(O)COc1cccc2c1CC(O)C(O)C2 (configuration not stated) [NADOLOL] gave an uptake ratio at 1 min, 2.5 µM [1, 3] greater than 2 and an uptake ratio at 1 min, 2.5 µM ([2]; HEK293 cells expressing MATE1) greater than 2.
With OC(CNCC(O)C1CCc2cc(F)ccc2O1)C1CCc2cc(F)ccc2O1 (configuration not stated) [NEBIVOLOL] the uptake ratio at 1 min, 2.5 µM [1, 3] was less than 2 and the uptake ratio at 1 min, 2.5 µM ([2]; HEK293 cells expressing MATE1) was less than 2.
In the case of O=C(O)c1cccnc1 [NIACIN], the uptake ratio at 1 min, 2.5 µM ([1]; hek293) is reported as less than 2 and the uptake ratio at 1 min, 2.5 µM ([2]; hek293) is reported as less than 2.
Work on CNC(=O)c1cccnc1 [NICOTINYL METHYLAMIDE] yielded an uptake ratio at 1 min, 2.5 µM [1, 3] greater than 2 and an uptake ratio at 1 min, 2.5 µM ([2]; HEK293 cells expressing MATE1) greater than 2.
